A short description of series [1]: In vivo baboon PET imaging studies. Conditions: for peak maximum radioactivity remaining in brain at later time points / early-to-late brain radioactivity concentration: baboon brain; for early-to-late brain radioactivity concentration: ratio of early to late radioactivity concentration; for rate of non-specific clearance (t1/2): baboon cerebellum (reference region devoid of specific binding); for higher concentration of radioactivity at 90 minutes in white matter regions than in gray matter regions / clearance half-time from baboon brain gray matter / brain penetration of radioactivity at early time points: control baboon; for higher concentration of radioactivity at 90 minutes in white matter regions than in gray matter regions: 90 minutes post-injection, white matter vs gray matter such as temporal cortex; for clearance half-time from baboon brain gray matter / brain penetration of radioactivity at early time points: intravenous injection; for clearance half-time from baboon brain gray matter: PET; for brain penetration of radioactivity at early time points: PET time-activity curve, all three brain regions. The method, then:
PET imaging studies in adult baboons (Papio anubis) (weight 15-35 kg, ages 6-12 years) were performed with Compound B and Compound C in accordance with the Guide for the Care and Use of Laboratory Animals adopted by NIH and with the approval of the local Institutional Animal Care and Use Committee. Prior to PET imaging, the animals were initially sedated with ketamine (10-15 mg/kg, i.m.), given atropine (0.5 mg, i.m.) to control salivation and heart rate, and intubated. The baboons were subsequently maintained on a ventilator with isofluorane (0.5-1.25%) anesthesia and medical air. Pancuronium bromide was administered as necessary (intravenously, up to 0.06 mg/kg/hour, titrated to effect) to keep the animals immobilized during the study. A femoral artery catheter was inserted to monitor blood pressure and sample arterial blood, and an intravenous catheter was placed in an antecubital vein for radiotracer injection and to administer fluids as necessary throughout the course of the imaging study. Blood pressure, heart and respiratory rates, and expired CO2 and oxygen saturation levels were monitored continuously during the PET studies. The baseline rectal body temperature (˜37° C.) was maintained using a heating blanket (Gaymar, Orchard Park, N.Y.) and temperature regulator (Yellow Springs Instruments, Yellow Springs, Ohio). Prior to scanning, the baboon's head was fixed so that the image planes were acquired approximately parallel to the orbital-meatal line.
PET data were acquired using an ECAT HR+PET scanner (CTI PET Systems, Knoxyille, Tenn.) in 3D imaging mode (63 parallel slices; 15.2 cm axial field-of-view; 4.1 mm full-width half-maximum in-plane resolution). A Neuro-Insert (CTI PET Systems) was used to reduce the contribution of scattered photon events. After the baboons were positioned in the PET scanner, a windowed transmission scan (10-15 minutes) was obtained for attenuation correction of the PET emission data using rotating ^68Ge/^68Ga rods. Compound B and Compound C were administered intravenously over 20 seconds, and a dynamic series of PET scans were acquired over 90 minutes using 26 frames of increasing length (6×20 seconds; 4×30 seconds; 6×60 seconds; 4×5 minutes; 6×10 minutes). Approximately 185 MBq (˜5 mCi) of a high specific activity (>14.8 GBq/μmol) Compound B or Compound C was injected in a baboon. In other studies, 148-296 MBq (4-8 mCi) of a high specific activity (>18.5 GBq/μmol) reference PET radiotracer was injected, including either [^11C](+)-McN5652, [carbonyl-^11C]WAY100635, or [^18F]altanserin. The PET data were reconstructed using a Hanning filter (Nyquist cut-off) and corrected for decay, photon attenuation, and scatter.
An MRI scan was obtained for each baboon using a 1.5T GE Signa scanner (GE Medical Systems, Milwaukee, Wis.) equipped with a standard head coil. A volumetric spoiled gradient recalled (SPGR) MR sequence with parameters for high contrast among gray matter, white matter, and cerebral spinal fluid (CSF) was acquired in the coronal plane (TE=5, TR=24, flip angle=40°, slice thickness=1.5 mm, NEX=2, field of view 12 cm, voxel size=0.94×1.25×1.5 mm). Each individual baboon's MR image was coregistered to the PET data using the automated image registration (AIR) algorithm for cross-modality image alignment and reslicing. The initial 16 frames ([…] post-injection) of the dynamic PET images were summed together into images consisting of a single frame. Prior to co-registration, both the MR and summed PET images were edited using the ANALYZE software package (Mayo Clinic. Rochester, Minn.) to remove extracerebral tissues that could possibly confound the co-registration process. The edited MR images were then coregistered to the summed PET image and resliced to yield MR images in the same spatial orientation and resolution as the summed PET images.

Series [2] can be described thus: In vivo mouse brain entry studies. On the set-up: species or system female Swiss-Webster mice. How it is done:
This study reflects brain entry and clearance from normal brain tissue.
The mice were anesthetized and killed by cardiac excision following cardiac puncture to obtain arterial blood samples at 2 minutes or 30 minutes post-injection. The mouse brains were rapidly excised and divided into the cerebellum and the remaining whole brain (including brain stem) fractions. The brain samples were counted in a gamma well-counter, and the counts were decay-corrected to the time of injection relative to ^125I or ^18F standards prepared from the injection solution to determine the percent injected dose (% ID) in the samples. The brain samples were weighed to determine the percent injected dose per gram tissue (% ID/g), and this quantity was multiplied by the whole body weight (in kg) to determine the body-weight normalized radioactivity concentration [(% ID-kg)/g] of each tissue sample.

The mark [3] stands for this setting: baboon cerebellar time-activity curves, reference PET radioligands.

Each structure is given as a SMILES string.

Turning to `CNc1ccc(-c2nc3ccc(O)cc3s2)cc1[18F]` [Compound B, 2-(3-[^18F]-fluoro-4-methylamino-phenyl)-benzothiazol-6-ol], in series [1], the “peak maximum radioactivity remaining in brain at later time points” value was “about 25%”, the “early-to-late brain radioactivity concentration” value was “about 4”, the “rate of non-specific clearance (t1/2)” value came out at 17 min and the “higher concentration of radioactivity at 90 minutes in white matter regions than in gray matter regions” value is recorded as approximately 30%. Moreover, in series [1], the “clearance half-time from baboon brain gray matter” value is reported as “about 17 minutes” and the “brain penetration of radioactivity at early time points” value is listed as “about 0.40 % ID-kg/g”. Moreover, in series [2] (mouse, in vivo), the “2 min./30 min. Ratio” value was determined as 10; the “Radioactivity Conc. at 2 min.” value is 0.29 % ID-kg/g; the “Radioactivity Conc. at 30 min.” value was determined as 0.030 % ID-kg/g; the “brain entry and clearance (in words)” value is “relatively high brain entry at early time points and fast clearance at later time points”.
In the case of `Oc1ccc2nc(-c3ccc(NCCC[18F])cc3)sc2c1` [Compound C, 2-[4-(3-^18F-fluoro-propylamino)-phenyl]benzothiazol-6-ol], in series [1], the “peak maximum radioactivity remaining in brain at later time points” value is on record as “about 15%”, the “early-to-late brain radioactivity concentration” value is “about 6”, the “rate of non-specific clearance (t1/2)” value amounted to 10 min and the “higher concentration of radioactivity at 90 minutes in white matter regions than in gray matter regions” value was less than 10%. Moreover, in series [1], the “clearance half-time from baboon brain gray matter” value was “about 10 minutes” and the “brain penetration of radioactivity at early time points” value is recorded as “about 0.22 % ID-kg/g”. Further, in series [2] (mouse brain, 2 and 30 minutes post-injection), the “brain entry and clearance (in words)” value is “relatively high brain entry at early time points and fast clearance at later time points”. In series [2] (mouse brain, 2 minutes post-injection, lateral tail vein injection, wild type mice without amyloid deposits), the “Radioactivity Conc. at 2 min.” value stood at 0.17 % ID-kg/g. For the same compound, the “Radioactivity Conc. at 30 min.” value in series [2] (mouse brain, 30 minutes post-injection, lateral tail vein injection, wild type mice without amyloid deposits) is listed as 0.011 % ID-kg/g. The “2 min./30 min. Ratio” value in series [2] (ratio of 2 minutes-to-30 minutes (% ID-kg)/g values, mouse brain, measure of non-specific binding clearance rate) is 16.
With `[11CH3]Sc1ccc([C@@H]2CN3CCC[C@@H]3c3ccccc32)cc1` [[^11C](+)-McN5652, reference compound], the “non-specific binding clearance rate (in words)” value in series [1] (setting [3]) is “relatively slow in vivo clearance”.
Turning to `O=C(c1ccc([18F])cc1)C1CCN(CCn2c(=S)[nH]c3ccccc3c2=O)CC1` [[^18F]altanserin, reference compound], the “non-specific binding clearance rate (in words)” value in series [1] (setting [3]) is listed as “relatively rapid non-specific binding clearance rates”.
As for `COc1ccccc1N1CCN(CCN(c2ccccn2)[11C](=O)C2CCCCC2)CC1` [[carbonyl-^11C]WAY100635, reference compound], the “non-specific binding clearance rate (in words)” value in series [1] (in vivo) is recorded as “relatively rapid non-specific binding clearance rates”.
